Patent US20240108702A1, “Use Of Naturally Occurring Cyclic Peptides For Treatment Of SARS-COV-2 Infection” (The University of Southern California, priority 2021, published 2024)
Where a SMILES comes first, the peptide text is derived from it. Bridges are numbered along the chain shown (N, C = ends).

Tests used:
in vivo [1] = settings: both, cynomolgus monkey, iv
TMPRSS2 = TMPRSS2 (Homo sapiens, UniProt O15393); experiment: Cellular TMPRSS2 inhibition assay in Calu3 cells; format: cell-based; design: endogenous in cells; host or cells: Calu3 (Calu-3) cells
Chain of TMPRSS2 (O15393 whole entry): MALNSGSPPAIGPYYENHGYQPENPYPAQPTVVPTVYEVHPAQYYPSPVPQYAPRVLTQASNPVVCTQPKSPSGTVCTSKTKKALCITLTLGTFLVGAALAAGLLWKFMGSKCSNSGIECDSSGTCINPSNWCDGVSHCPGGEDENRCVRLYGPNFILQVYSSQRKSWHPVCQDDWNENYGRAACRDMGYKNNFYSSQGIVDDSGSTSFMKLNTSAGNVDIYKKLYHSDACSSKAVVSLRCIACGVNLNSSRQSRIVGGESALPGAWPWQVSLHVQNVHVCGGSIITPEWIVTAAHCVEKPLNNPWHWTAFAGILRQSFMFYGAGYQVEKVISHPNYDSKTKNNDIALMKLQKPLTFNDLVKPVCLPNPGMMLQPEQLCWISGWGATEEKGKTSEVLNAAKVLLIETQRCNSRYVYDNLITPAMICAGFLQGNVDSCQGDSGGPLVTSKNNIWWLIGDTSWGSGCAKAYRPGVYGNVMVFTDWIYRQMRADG
Description: TMPRSS2 inhibition assays. Peptides (0-50 μg/ml) were tested for their inhibitory activities against TMPRSS2 in cellular assays using Vero E6 cells, Caco-2 cells, or Calu-3 cells using standard conditions. TMPRSS2 activity was assayed in real time for 120 min by monitoring the cleavage of the TMPRSS2 substrate, Boc-Leu-Gly-Arg-AMC. Following the 2 h enzyme assay, cells were evaluated for viability using the CellTiter-Glo cellular toxicity assay.

in vivo [2] = settings: both, Sprague-Dawley, rat, iv
[3] = Single-dose i.v. bolus PK study in mice; format: in vivo, CD-1 mice
Description: Mouse studies: All procedures and protocols involving the use of animals were reviewed and approved by the University of Southern California (USC) IACUC (protocol #20538). Briefly, male (31.7-37.7 g) and female (25.2-35.6 g) CD-1 mice (Charles River Laboratories) were administered a single 5 mg/kg i.v. bolus injection of Peptide 1 (SEQ ID NO. 1) into the lateral tail vein. A total of 24 mice were separated into six groups (n=2/sex/group), with each group assigned to a single, pre-determined time point. Blood samples were collected at 0.25, 1, 2, 4, 8, and 24 h post-dose via terminal cardiac puncture. The collected samples were centrifuged to separate the plasma and stored at −80° C. until analysis.
Bioanalytical analysis: Clarified plasma samples from mice were directly diluted into 5% formic acid/5% acetonitrile. Quantitative analysis of Peptide 1 (SEQ ID NO. 1) was performed by LC-MS/MS with reverse-phase liquid chromatography (XBridge™ BEH phenyl 3.5 μm 3×100 mm column, Waters #186003328) on an Acquity™ H-Class UPLC (Waters) coupled to a Xevo™ TQ-S tandem electrospray mass spectrometry running MassLynx™ V4.1 (Waters). Quantitative mass spectroscopy was performed by multiple-reaction monitoring transition 417.32>517.21, with the area under the curve determined by TargetLynx™ (Waters). A synthetic theta defensin-like peptide was used as an internal standard (IS). The lower limit of quantification (LLOQ) of the assay was 1 ng/mL. Intra- and inter-assay precision (percent coefficient of variation [CV]) was ≤3%, and intra and interassay accuracy (% relative error) was ≤5%. Plasma Peptide 1 (SEQ ID NO. 1) concentration analyses for rats and cynomolgus monkey studies were performed at MicroConstants (San Diego, CA) by HPLC using a Mac-Mod™ Analytical ACE C4 column. The mobile phase was nebulized using heated nitrogen in Z-Spray source/interface set to electrospray positive ionization mode, and the compound was detected using MS/MS (LLOQ=10.0 ng/mL). Details of the method are summarized in the MicroConstants method No. MN20038. Clarified plasma samples from a serially sampled vervet were quantified by ultra-performance liquid chromatography Waters Acquity H-Class UPLC. […] Peptide 1 (SEQ ID NO. 1) peak and mass confirmation was performed on post PDA eluent using a Micromass Quattro Ultima™ mass spectrometer with MassLynx™ 4.1 (Waters). The lower limit of quantitation (LLOQ) ranged from 10-30 ng/mL (determined by sample background) to an upper limit of 50 ug/mL. RTD-2 (10 ug/mL) was used as an internal standard. Intra- and interassay precision (% coefficient of variation [CV]) was ≤3%, and intra and interassay accuracy (% relative error) was ≤5%.
Pharmacokinetic analysis: Non-compartmental analysis (NCA) was performed using Phoenix WinNonlin™ (version 8.3.1, Certara USA, Inc.; Princeton NJ) to determine the PK parameters in mice, rats, cynomolgus monkeys, and the vervet. Nominal sampling times were used in the analysis, and data below the lower limit of quantification of the assay were excluded from the analysis. The maximum plasma concentration (Cmax) was determined from visual inspection of the data. In addition, the following parameters were calculated: terminal elimination rate constant (λz), area under the curve extrapolated to infinity (AUC0-∞), area under the curve to dosing interval (AUCτ), mean residence time (MRT), clearance (CL), and volume of distribution at steady state (Vss). AUC was calculated using the linear up, log down method, and the λz was calculated using up to the last four data points of the log-linear terminal phase of the concentration-time profile. Due to sparsely sampled data in mice and rats, the sparse sampling calculation methodology in Phoenix WinNonlin™ was used, which generated a single estimate without standard error for all parameters, except for Cmax. For rats and cynomolgus monkeys, all parameters were calculated using sampling times relative to the beginning of the i.v. infusion.

[4] = both sexes, CD-1, mouse, plasma, iv, single 5 mg/kg i.v. bolus

SMILES: CC[C@H](C)[C@@H]1NC(=O)[C@@H]2CSSC[C@H](NC(=O)[C@H](CCCNC(=N)N)NC(=O)[C@@H]3CSSC[C@H](NC1=O)C(=O)N[C@@H]([C@@H](C)O)C(=O)N[C@@H](CCCNC(=N)N)C(=O)NCC(=O)N[C@@H](Cc1ccccc1)C(=O)N3)C(=O)N[C@@H](CC(C)C)C(=O)N[C@H]1CSSC[C@H](NC(=O)[C@H](C(C)C)NC(=O)CNC(=O)[C@H](CCCNC(=N)N)NC(=O)[C@H](CCCNC(=N)N)NC1=O)C(=O)N[C@@H](CCCNC(=N)N)C(=O)N2 [Peptide 1] (cyclo(GFCRCLCRRGVCRCICTR); disulfide 3-16, 5-14, 7-12)
- MTD at 7 days (in vivo [1]): 15 mg/kg
- NOAEL at 7 days (in vivo [1]; 15 mg/kg): 15 mg/kg/day
- IC50 (TMPRSS2): 3.12 to 3.84 µM
- mortality (cynomolgus monkeys, 10-day repeat dose, any dose level): no mortality or unscheduled euthanasia occurred
- urinalysis, ophthalmologic assessments, electrocardiogram (cynomolgus monkeys, any dose level, data not shown): no treatment-related changes
- food consumption (cynomolgus, females at 10 mg/kg/day and both sexes at 15 mg/kg/day, non-adverse): Treatment-related decrease in food consumption
- microscopic findings, lung (cynomolgus, males ≥10 mg/kg/day and females ≥5 mg/kg/day, Day 11, resolved by end of recovery): minimal to mild intravascular thrombosis (thromboembolism)
- tolerability (male and female cynomolgus monkeys, doses up to 15 mg/kg): well tolerated
- AUC (in vivo [2]; 5 mg/kg): 15000 ng·h/mL
- AUC(0-inf) (in vivo [2]; 5 mg/kg): 15900 ng·h/mL
- Cmax (in vivo [2]; 5 mg/kg): 7470 ng/mL
- MRT (in vivo [2]; 5 mg/kg): 4.37 h
- Vd (in vivo [2]; 5 mg/kg): 1.46 L/kg
- clearance (in vivo [2]; 5 mg/kg): 5.57 mL/min/kg
- AUC (in vivo [2]; 5 mg/kg/day): 12500 ng·h/mL
- AUC(0-inf) (in vivo [2]; 5 mg/kg/day): 12700 ng·h/mL
- Cmax (in vivo [2]; 5 mg/kg/day): 10100 ng/mL
- MRT (in vivo [2]; 5 mg/kg/day): 2.92 h
- Vd (in vivo [2]; 5 mg/kg/day): 1.17 L/kg
- clearance (in vivo [2]; 5 mg/kg/day): 6.68 mL/min/kg
- AUC (in vivo [2]; 10 mg/kg): 41700 ng·h/mL
- AUC(0-inf) (in vivo [2]; 10 mg/kg): 42100 ng·h/mL
- Cmax (in vivo [2]; 10 mg/kg): 27500 ng/mL
- MRT (in vivo [2]; 10 mg/kg): 2.88 h
- Vd (in vivo [2]; 10 mg/kg): 0.691 L/kg
- clearance (in vivo [2]; 10 mg/kg): 4 mL/min/kg
- AUC (in vivo [2]; 10 mg/kg/day): 34100 ng·h/mL
- AUC(0-inf) (in vivo [2]; 10 mg/kg/day): 34700 ng·h/mL
- Cmax (in vivo [2]; 10 mg/kg/day): 21800 ng/mL
- MRT (in vivo [2]; 10 mg/kg/day): 3.45 h
- Vd (in vivo [2]; 10 mg/kg/day): 1.01 L/kg
- clearance (in vivo [2]; 10 mg/kg/day): 4.88 mL/min/kg
- AUC (in vivo [2]; 20 mg/kg): 127000 ng·h/mL
- AUC(0-inf) (in vivo [2]; 20 mg/kg): 127000 ng·h/mL
- Cmax (in vivo [2]; 20 mg/kg): 35400 ng/mL
- MRT (in vivo [2]; 20 mg/kg): 4.81 h
- Vd (in vivo [2]; 20 mg/kg): 0.758 L/kg
- clearance (in vivo [2]; 20 mg/kg): 2.62 mL/min/kg
- AUC [3, 4]: 12300 ng·h/mL
- AUC(0-inf) [3, 4]: 12500 ng·h/mL
- MRT [3, 4]: 2.62 h
- clearance [3, 4]: 6.67 mL/min/kg
- Cmax ([3]; both sexes, CD-1, mouse, plasma, iv, single 5 mg/kg i.v. bolus, estimate (SE)): 8920 ng/mL
- Vd ([3]; both sexes, CD-1, mouse, plasma, iv, single 5 mg/kg i.v. bolus, read-out: Vss): 1.05 L/kg
- λz ([3]; single 5 mg/kg i.v. bolus): 0.114 h⁻¹
- elimination phase half-life ([3]; single i.v. bolus): 6.05 h
